Results reported in patent US20220372014A1, “NEUROPROTECTIVE COMPOUNDS AND METHODS OF USE THEREOF” (The Johns Hopkins University, priority 2019, published 2022).
Where a SMILES comes first, the peptide text is derived from it. The star is where a group is joined. Cbz = O=C(OCc1ccccc1)*; CH2F = FC*

Experiments:
SH-SY5Y cells [1] = experiment: Staurosporine (STS)-induced apoptotic cell death, Alamar blue; assay type: cell-based; details: 0.5 μM STS
Protocol: (§1) Graphs represent mean±s.e.m. ***P<0.0005, two-way ANOVA followed by Tukey's post hoc test (n=3). A PARP inhibitor, ABT-888 is used for the positive control. FIGS. 12B and 12C show in vitro oxidoreductase and tautomerase activity of MIF/PAAN with compound 41, 56, 76, or 77. FIGS. 12D and 12E show Alamar blue cell viability assay from SH-SY5Y cells pre-incubated with compound 41, 56, 76, or 77 in response to 0.5 μM staurosporine (STS) or from HT 22 cells incubated with 1 ng/ml of TNF-α with 50 μM z-VAD. A pan caspase inhibitor, z-VAD or necrostatin (Nec-1) is used for the positive control and PARP inhibitor, ABT-888 is used for negative control. Bars represent mean±s.e.m. ***P<0.0005, two-way ANOVA followed by Tukey's post hoc test (n=3). […] Bars represent mean±s.e.m. **P<0.005, ***P<0.0005, two-way ANOVA followed by Tukey's post hoc test (n=3).
(§2) FIGS. 14A-14G show the characterization of compound 121. […] Bars represent means±s.e.m. ***P<0.0005, two-way ANOVA followed by Tukey's post hoc test (n=4). […] Bars represent mean±s.e.m. ***P<0.0005, two-way ANOVA followed by Tukey's post hoc test (n=4). […] Bars represent means±s.e.m. **P<0.005, ***P<0.0005, one-way ANOVA followed by Tukey's post hoc test (n=3). […] Bar represent mean±s.e.m. ***P<0.0005, one-way ANOVA followed by Tukey's post hoc test (n=3). […] Quantification of inhibition of PARP-1 activity by compound 56, compound 121 and ABT-888 is shown. Graphs represent mean±s.e.m. ***P<0.0005, two-way ANOVA followed by Tukey's post hoc test (n=3). FIGS. 14F and 14G show Alamar blue cell viability assay from SH-SY5Y cells pre-incubated with either compound 56 or 121 in response to (14F) 0.5 μM staurosporine (STS) or (14G) from HT 22 cells incubated with 1 ng/ml of TNF-α with 50 μM z-VAD. Bars represent mean±s.e.m. ***P<0.0005, two-way ANOVA followed by Tukey's post hoc test (n=5).
(§3) Cell death and viability assessment. Primary cultured cortical neurons were treated with 5 μg/ml of α-syn PFF for 14 days and cell death was determined by staining of all nuclei with 7 μM Hoechst 33342 and dead cell nuclei with 2 μM propidium iodide (PI) (Invitrogen). The numbers of total and dead cells were counted with the Axiovision 4.6 software (Carl Zeiss). Cell viability was determined by fluorescence at an excitation wavelength 570 nm and an emission wavelength 585 nm using Alamar Blue (Invitrogen).

HT 22 cells = experiment: TNF-α and z-VAD-induced necroptosis, Alamar blue; assay type: cell-based; details: 1 ng/ml TNF-α with 50 μM z-VAD
Protocol: as §1, §2, §3

cortical neurons = experiment: Nuclear translocation of AIF and PAAN/MIF after α-syn PFF treatment in cortical neurons (subcellular fractionation); assay type: cell-based, mouse; details: primary neuronal cultures
Excerpt: FIGS. 3A-3H show PAAN/MIF nuclease activity is required for prevention of α-syn PFF-induced neurotoxicity in neurons. […] See Donawho, et al. (2007) Clin. Cancer Res. 13:2728-37. Intensity of PAAN/MIF and AIF signal is shown in the graph. **P<0.005 versus the PBS control group in the nuclear (N) fraction, two-way ANOVA followed by Tukey's post hoc test. […] Intensity of AIF-bound PAAN/MIF is shown in the graph. *P<0.05, student's t-test. […] Scale bars, 20 μm. The white color in the merged images indicates the overlay of AIF, PAAN/MIF and Hoechst dye in the nucleus. The percentage of cells with nuclear localization of PAAN/MIF and AIF is shown in the graph. ***P<0.0005, student's t-test. […] Intensity of noncleaved genomic DNA is shown in the graph. ***P<0.0005, two-way ANOVA. […] Scale bar, 20 μm. […] Bars represent mean±s.e.m. ***P<0.0005, two-way ANOVA followed by Tukey's post hoc test (n=3). […] Bars represent mean±s.e.m. ***P<0.0005, two-way ANOVA followed by Tukey's post hoc test (n=5). […]
Subcellular fractionation. Subcellular fraction and quantification of relative levels of AIF and PAAN/MIF were performed as previously described. […] Each fractions were monitored by PARP-1 antibody (BD) for the nuclear fraction and HSP60 antibody (cell signaling) for the postnuclear fraction.

SH-SY5Y cells [2] = experiment: MNNG-induced parthanatic cell death in SH-SY5Y cells (Alamar blue cell viability); assay type: cell-based; details: 50 μM MNNG for 15 min, viability after 24 h
Excerpt: We developed an assay to screen for PAAN/MIF nuclease inhibitors. Single-stranded PAAN/MIF nuclease DNA substrate (FIG. 10A) was amine modified on the 5′ end and immobilized on a plate. Hybridization with a biotin-labeled complementary oligonucleotide followed by addition of streptavidin conjugated horseradish peroxidase enzyme (HRP) leads to retention of HRP on the surface within each well in the presence of intact PAAN/MIF nuclease DNA substrate, which can be quantitatively detected through colorimetric change at 450 nm using the HRP substrate 3,3′,5,5′-tetramethylbenzidine (TMB). In the presence of WT PAAN/MIF, there is reduced signal, indicative of cleavage of the PAAN/MIF nuclease substrate, while the signal is not attenuated without recombinant PAAN/MIF (FIGS. 1 and 10B). […] Thus, the rapafucin library containing 45,000 macrocyclic compounds in 3,000 pools of 15 compounds was screened using this assay. […] Several pools were identified that inhibit PAAN/MIF nuclease activity from the primary screen (FIG. 4A). […] Nine pools of compounds were identified that both inhibit PAAN/MIF cleavage of the substrate and protect against MNNG-induced parthanatic cell death by greater than 70% (FIG. 10D). […] Next, the 90 individual compounds in the 6 pools were synthesized and further assessed for inhibition of PAAN/MIF nuclease activity and MNNG-induced parthanatic cell death. Among them 12 compounds (compounds 16-18, 26-28, 41, 56, 66, 67, 76, and 77) were identified that block MIF nuclease activity and MNNG-induced parthanatic cell death by greater than 60% (FIG. 10F). Dose dependence (0.1 to 1.0 μM) were assessed for the 12 compounds against MNNG-induced parthanatic cell death (FIG. 11A and Table 2) and inhibition of PAAN MIF nuclease activity against the RF (FIG. 111B) and PS30 substrates (FIG. 11C).
Cell culture, transfection, primary neuronal culture and treatment. SH-SY5Y cells (ATCC) were cultured in DMEM containing 10% fetal bovine serum and penicillin/streptomycin at 37° C. under 5% C02. The cells were transfected using PolyFect reagent (Qiagen). Parthanatos was induced by the treatment of 50 μM MNNG for 15 min in SH-SY5Y cells. ABT-888 or PAAN/MIF inhibitors were pretreated with indicated concentration 1 h before MNNG treatment and cell death were assessed after 24 h. Primary cortical neurons from WT, PAAN/MIF KO, E22Q KI or P1G KI embryos were prepared as previously described See Kam et al. (2018) Science 362:eaat8407. Briefly, the cortex was dissected and cultured at embryonic day 16 in neurobasal media supplemented with B-27, 0.5 mM L-glutamine, penicillin and streptomycin (Invitrogen). Primary neurons were infected with AAV2-control, AAV2-PAAN/MIF WT, AAV2-PAAN/MIF E22Q, AAV2-PAAN/MIF E22A or AAV2-MIF P1G (ViGene Biosciences) at days in vitro (DIV) 4-5. ABT-888 or PAAN/MIF inhibitors were applied to neurons 1 h before α-syn PFF treatment. The neuron growth medium was replaced with fresh medium alone or including inhibitors every 3-4 days. α-syn PFF was added at DIV 7 and further incubated for indicated times followed by the cell death assay or biochemical experiments.
as §3, with “Blue (Invitrogen). […]” for “Blue (Invitrogen).”

Compound	staurosporine (STS)-induced apoptotic cell death (SH-SY5Y cells [1])	TNFα and Z-VAD-induced necroptosis (HT 22 cells)	α-syn PFF-induced nuclear translocation of PAAN/MIF and AIF (cortical neurons)	inhibition of MNNG-induced parthanatic cell death (SH-SY5Y cells [2])
C[C@]1(c2nc3c(C(N)=O)cccc3[nH]2)CCCN1 [ABT-888, reference compound]	do not inhibit	not prevented	attenuated	–
CC(NC(=O)C(NC(=O)OCc1ccccc1)C(C)C)C(=O)NC(CC(=O)O)C(=O)CF (stereo not drawn) [Z-VAD, reference compound] (Cbz-Val-Ala-Asp-CH2F; configuration not given here)	prevents	–	–	–
CO[C@H]1C[C@@H]2CC[C@@H](C)[C@@](O)(O2)C(=O)C(=O)N2CCCC[C@H]2C(=O)O[C@H]([C@H](C)C[C@@H]2CC[C@@H](O)[C@H](OC)C2)CC(=O)[C@H](C)/C=C(\C)[C@@H](O)[C@@H](OC)C(=O)[C@H](C)C[C@H](C)/C=C/C=C/C=C/1C [rapamycin, reference compound]	–	–	–	failed to inhibit
CN1C(=O)C(Cc2c[nH]c3ccccc23)NC1=S (stereo not shown) [Nec-1, necrostatin, reference compound]	–	prevents	–	–
C=CC[C@@H]1/C=C(\C)C[C@H](C)C[C@H](OC)[C@H]2O[C@@](O)(C(=O)C(=O)N3CCCC[C@H]3C(=O)O[C@H](/C(C)=C/[C@@H]3CC[C@@H](O)[C@H](OC)C3)[C@H](C)[C@@H](O)CC1=O)[C@H](C)C[C@@H]2OC [FK506, reference compound]	–	–	–	failed to inhibit
